Data on one molecule can be found in patent publication US20240207258A1, “HETEROCYCLIC PDK1 INHIBITORS FOR USE TO TREAT CANCER” (Viracta Therapeutics, Inc., priority 2015, published 2024).

One experiment deals with Molm-13. The experiment can be described thus: MTS cell proliferation assay, Molm-13. The note with it: Homo sapiens; Molm-13, 72 hr. Type of experiment: cell-based. How it is done: (§1) Cell proliferation was measured using the CellTiter 96 Aqueous Non-Radioactive Cell Proliferation Assay (Promega). The CellTiter 96® AQueous Assay is composed of solutions of a tetrazolium compound [3-(4,5-dimethylthiazol-2-yl)-5-(3-carboxymethoxyphenyl)-2-(4-sulfophenyl)-2H-tetrazolium, inner salt; MTS] and an electron coupling reagent (phenazine methosulfate) PMS. MTS is bioreduced by cells into a formazan product that is soluble in tissue culture medium. The absorbance of the formazan product at 490 nm can be measured directly from assay plates without additional processing. The quantity of formazan product as measured by the amount of 490 nm absorbance is directly proportional to the number of living cells in culture. Cells were seeded into 96-well or 384-well clear plates in a volume of 200 μL (96-well) or 50 μL (384-well) at optimized densities ranging from 1,000 to 40,000 cells per well for 96-well plates or 1,200 to 25,000 cells per well for 384-well plates depending on cell-line. After 4-6 hr recovery, serially diluted compounds in DMSO were added to the cells using (0.1% v/v final DMSO concentration). Cells were then grown at 37° C. in a humidified incubator with 5% CO2 for 72 hr. A 20:1 [3-(4,5-dimethylthiazol-2-yl)-5-(3-carboxymethoxyphenyl)-2-(4-sulfophenyl)-2H-tetrazolium](MTS):phenazine methosulfate (PMS) solution in DPBS was made immediately before use, added to each well, and cells were incubated for 1.5 hr at 37° C. The absorbance at 490 nm was then measured using a platereader. Absorbance values were normalized as percent of control (cells incubated in the presence of 0.1% v/v DMSO). Sigmoidal dose-response curves were plotted using log(inhibitor) vs. response—Variable slope (four parameters) model with a top value constrained to 100% (GraphPad Prism version 6.00 for Windows, GraphPad Software, La Jolla California USA). […] Curves for compounds that reached a plateau were matched exactly to the measurement points. […] To determine potential of compounds of the invention to affect viability of hematological cancers, cell lines representing various tumor types were selected and tested. Human cell lines tested were: MOLM-13 (acute myeloid leukemia (AML)), MV4-11 (AML), U-2932 (ABC-diffuse large B cell lymphoma), U-937 (histiocytic lymphoma), U-266 (multiple myeloma), RPMI-8226 (multiple myeloma), CMK (megakaryoblastic cell line), SU-DHL-4 (GCB-diffuse large B cell lymphoma), KG1 (AML), Mec-1 (chronic B-cell leukemia), MOLM-16 (AML), Jeko (B-cell lymphoma), WSU-DLCL2 (B-cell lymphoma), JJN3 (plasma cell leukemia), SU-DHL-6 (GCB-diffuse large B cell lymphoma), and Z-138 (mantle cell lymphoma). In addition, two murine cell lines were tested: A20 […].
In general terms: Tetrazolium assays rely on reduction of a dye to a coloured formazan, in cell work by metabolically active cells.

The next experiment has as its system SU-DHL-6. The experiment can be described thus: MTS cell proliferation assay, SU-DHL-6. The note with it: Homo sapiens; SU-DHL-6, 72 hr. The experiment is classed as cell-based. How it is done: (§2) Cell proliferation was measured using the CellTiter 96 Aqueous Non-Radioactive Cell Proliferation Assay (Promega). The CellTiter 96® AQueous Assay is composed of solutions of a tetrazolium compound [3-(4,5-dimethylthiazol-2-yl)-5-(3-carboxymethoxyphenyl)-2-(4-sulfophenyl)-2H-tetrazolium, inner salt; MTS] and an electron coupling reagent (phenazine methosulfate) PMS. MTS is bioreduced by cells into a formazan product that is soluble in tissue culture medium. The absorbance of the formazan product at 490 nm can be measured directly from assay plates without additional processing. The quantity of formazan product as measured by the amount of 490 nm absorbance is directly proportional to the number of living cells in culture. Cells were seeded into 96-well or 384-well clear plates in a volume of 200 μL (96-well) or 50 μL (384-well) at optimized densities ranging from 1,000 to 40,000 cells per well for 96-well plates or 1,200 to 25,000 cells per well for 384-well plates depending on cell-line. After 4-6 hr recovery, serially diluted compounds in DMSO were added to the cells using (0.1% v/v final DMSO concentration). Cells were then grown at 37° C. in a humidified incubator with 5% CO2 for 72 hr. A 20:1 [3-(4,5-dimethylthiazol-2-yl)-5-(3-carboxymethoxyphenyl)-2-(4-sulfophenyl)-2H-tetrazolium](MTS):phenazine methosulfate (PMS) solution in DPBS was made immediately before use, added to each well, and cells were incubated for 1.5 hr at 37° C. The absorbance at 490 nm was then measured using a platereader. Absorbance values were normalized as percent of control (cells incubated in the presence of 0.1% v/v DMSO). Sigmoidal dose-response curves were plotted using log(inhibitor) vs. response—Variable slope (four parameters) model with a top value constrained to 100% (GraphPad Prism version 6.00 for Windows, GraphPad Software, La Jolla California USA). […] Curves for compounds that reached a plateau were matched exactly to the measurement points. […]

Experiment [1] addresses T1, Full-length phosphorylated PDK1 (Homo sapiens, UniProt O15530).
T1 sequence (O15530 1-556): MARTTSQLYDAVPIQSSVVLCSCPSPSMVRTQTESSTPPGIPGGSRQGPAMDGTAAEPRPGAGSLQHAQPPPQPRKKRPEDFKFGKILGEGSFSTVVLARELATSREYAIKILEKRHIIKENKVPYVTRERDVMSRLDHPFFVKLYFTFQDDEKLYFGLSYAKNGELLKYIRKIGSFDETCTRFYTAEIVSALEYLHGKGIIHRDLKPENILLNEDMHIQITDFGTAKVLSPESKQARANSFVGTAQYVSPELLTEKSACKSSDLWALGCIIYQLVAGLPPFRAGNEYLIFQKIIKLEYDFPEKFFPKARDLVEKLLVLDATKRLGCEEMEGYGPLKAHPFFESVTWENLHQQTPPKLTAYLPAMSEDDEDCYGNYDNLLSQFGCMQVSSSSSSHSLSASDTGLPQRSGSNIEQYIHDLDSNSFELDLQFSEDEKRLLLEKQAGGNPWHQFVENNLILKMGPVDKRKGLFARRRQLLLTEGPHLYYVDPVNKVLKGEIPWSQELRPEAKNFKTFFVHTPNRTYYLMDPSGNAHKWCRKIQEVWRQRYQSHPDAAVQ
Description: Fluorescence polarization PIF-tide binding assay. The note with it: PDK1 saturating amounts of compound, FIG. 13C. For orientation: In fluorescence polarisation assays a small probe gives low polarisation when free and higher when bound to something large.

A further experiment deals with JJN3. Description: MTS cell proliferation assay, JJN3. The experiment is classed as cell-based. The note with it: Homo sapiens, JJN-3; JJN3, 72 hr. As to the method:
as §2

A further experiment relates to MOLM-16. The experiment can be described thus: MTS cell proliferation assay, MOLM-16. The note with it: Homo sapiens, MOLM16; MOLM-16, 72 hr. Type of experiment: cell-based. As to the method:
as §2

The test system of another experiment is RPMI-8226. Description: MTS cell proliferation assay, RPMI-8226. The experiment is classed as cell-based. The note with it: Homo sapiens; RPMI-8226, 72 hr. As to the method: as §1
The subject of the next experiment is KG1. Description: MTS cell proliferation assay, KG1. Type of experiment: cell-based. The note with it: Homo sapiens, KG-1; KG1, 72 hr. How it is done: as §2
Experiment [2] relates to hematologic tumor cell lines. Description: MTS cell proliferation assay, panel of hematologic cancer cell lines. Type of experiment: cell-based. The note with it: range against the various cell lines of Table 1; read-out: inhibition of cell proliferation EC50. How it is done:
as §1

For a further experiment, the system named is U-266. Description: MTS cell proliferation assay, U-266. Type of experiment: cell-based. The note with it: Homo sapiens; U-266, 72 hr. As to the method:
as §2

Another experiment concerns U-2932. The experiment can be described thus: MTS cell proliferation assay, U-2932. The note with it: Homo sapiens, U2932; U-2932, 72 hr. The experiment is classed as cell-based. How it is done: as §1
The test system of another experiment is WSU-DLCL2. The experiment can be described thus: MTS cell proliferation assay, WSU-DLCL2. The experiment is classed as cell-based. The note with it: Homo sapiens, WSUDLCL2; WSU-DLCL2, 72 hr. How it is done: as §2
A further experiment deals with SU-DHL-4. Description: MTS cell proliferation assay, SU-DHL-4. The experiment is classed as cell-based. The note with it: Homo sapiens; SU-DHL-4, 72 hr. How it is done:
as §2

In the next experiment the test system is Mec-1. Description: MTS cell proliferation assay, Mec-1. Type of experiment: cell-based. The note with it: Homo sapiens, MEC1; Mec-1, 72 hr. How it is done: as §2
The test system of another experiment is CMK. The experiment can be described thus: MTS cell proliferation assay, CMK. Type of experiment: cell-based. The note with it: Homo sapiens, 72 hr. As to the method: as §2
For a further experiment, the system named is Z-138. The experiment can be described thus: MTS cell proliferation assay, Z-138. The note with it: Homo sapiens; Z-138, 72 hr. Type of experiment: cell-based. As to the method: as §2
A further experiment concerns MV4-11. Description: MTS cell proliferation assay, MV4-11. The experiment is classed as cell-based, human. The note with it: Homo sapiens; MV4-11, 72 hr; read-out: MTS proliferation assay. As to the method: Cell proliferation was measured using the CellTiter 96 Aqueous Non-Radioactive Cell Proliferation Assay (Promega). […] MTS is bioreduced by cells into a formazan product that is soluble in tissue culture medium. The absorbance of the formazan product at 490 nm can be measured directly from assay plates without additional processing. The quantity of formazan product as measured by the amount of 490 nm absorbance is directly proportional to the number of living cells in culture. Cells were seeded into 96-well or 384-well clear plates in a volume of 200 μL (96-well) or 50 μL (384-well) at optimized densities ranging from 1,000 to 40,000 cells per well for 96-well plates or 1,200 to 25,000 cells per well for 384-well plates depending on cell-line. After 4-6 hr recovery, serially diluted compounds in DMSO were added to the cells using (0.1% v/v final DMSO concentration). Cells were then grown at 37° C. in a humidified incubator with 5% CO2 for 72 hr. A 20:1 [3-(4,5-dimethylthiazol-2-yl)-5-(3-carboxymethoxyphenyl)-2-(4-sulfophenyl)-2H-tetrazolium](MTS):phenazine methosulfate (PMS) solution in DPBS was made immediately before use, added to each well, and cells were incubated for 1.5 hr at 37° C. The absorbance at 490 nm was then measured using a platereader. Absorbance values were normalized as percent of control (cells incubated in the presence of 0.1% v/v DMSO). Sigmoidal dose-response curves were plotted using log(inhibitor) vs. response—Variable slope (four parameters) model with a top value constrained to 100% (GraphPad Prism version 6.00 for Windows, GraphPad Software, La Jolla California USA). […] To determine potential of compounds of the invention to affect viability of hematological cancers, cell lines representing various tumor types were selected and tested. […] In addition, two murine cell lines were tested: A20 […].

A further experiment relates to U-937. The experiment can be described thus: MTS cell proliferation assay, U-937. The experiment is classed as cell-based. The note with it: Homo sapiens; U-937, 72 hr. How it is done:
as §2

The test system of another experiment is Jeko. Description: MTS cell proliferation assay, Jeko. Type of experiment: cell-based. The note with it: Homo sapiens, 72 hr. How it is done:
as §1

On to `C[C@H](NC(=O)c1nc(C#N)cnc1NCc1ccc(-c2cnc3[nH]nc(N)c3c2)cc1)c1ccc(F)c(F)c1` [Compound 3, 3-[4-(3-Amino-1H-pyrazolo[3,4-b]pyridin-5-yl)-benzylamino]-6-cyano-pyrazine-2-carboxylic acid [1-(3,4-difluoro-phenyl)-ethyl]-amide], for which the EC50 with Molm-13 came to 5 nM; in the experiment with SU-DHL-6, 458 nM; in the experiment with JJN3, 853 nM; in the experiment on MOLM-16, 291 nM; in the experiment on RPMI-8226, 201 nM; with KG1, 193 nM. Besides, the EC50 in experiment [2] was 3 to 853 nM; in the experiment on U-266, 145 nM; in the experiment with U-2932, 115 nM; with WSU-DLCL2, 474 nM; in the experiment with SU-DHL-4, 411 nM; with Mec-1 it was 403 nM. The EC50 with CMK was 278 nM; in the experiment with Z-138, 754 nM; with MV4-11, 12 nM; with U-937, 111 nM; with Jeko it was 249 nM. Further, in experiment [1], the “PIF-tide binding to PDK1 (fluorescence polarization, words)” value is “significant inhibition of PIF-tide binding”.
